According to PMC4418176 (Bioorganic & medicinal chemistry letters, 2009):

Key:
[1] = molecular target: NTR1 (Homo sapiens, UniProt P30989); assay: NTR1 agonist-mediated calcium mobilization assay; format: cell-based; conditions: for NTR1 specificity of the observed calcium release (block by NTR1 antagonist 1a): cells pre-incubated with 1 or 10 mM 1a for 15 min at 37 °C, test compound at its EC50, data not shown
[2] = tested on: NTR1 receptor; conditions: calcium release (FLIPR) assay; cited from earlier work

Chain of NTR1 (P30989 whole entry, species assumed): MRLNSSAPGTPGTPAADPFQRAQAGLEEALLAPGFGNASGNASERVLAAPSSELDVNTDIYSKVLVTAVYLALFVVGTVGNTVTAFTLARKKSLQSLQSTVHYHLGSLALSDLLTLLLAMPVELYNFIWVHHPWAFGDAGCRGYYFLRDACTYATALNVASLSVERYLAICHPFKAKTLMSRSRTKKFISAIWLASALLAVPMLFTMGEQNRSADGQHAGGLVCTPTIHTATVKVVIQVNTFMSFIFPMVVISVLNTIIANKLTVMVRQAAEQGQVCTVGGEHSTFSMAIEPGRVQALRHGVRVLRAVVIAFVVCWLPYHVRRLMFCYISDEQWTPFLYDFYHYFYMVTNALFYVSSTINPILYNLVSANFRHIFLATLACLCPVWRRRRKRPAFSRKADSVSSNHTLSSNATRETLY

| SMILES | NTR1 specificity of the observed calcium release (block by NTR1 antagonist 1a) [1] | NTR1 receptor partial agonist activity [2] | further results |
| --- | --- | --- | --- |
| COc1cccc(OC)c1-c1cc(C(=O)N[C@H](C(=O)O)C2CCCCC2)nn1-c1ccnc2cc(Cl)ccc12 [Compound 1b, reference compound] |  |  | Screen (10 μM), percent stimulation relative to NT ([1]; 10 μM, in triplicate, CHO-K1 cells stably expressing NTR1, NA = not active): did not stimulate calcium release |
| COc1cccc(OC)c1-c1cc(C(=O)N[C@H](CC(C)C)C(=O)O)nn1-c1ccnc2cc(Cl)ccc12 [Compound 3b] | demonstrated by blocking with the NTR1 antagonist (1a) |  |  |
| COc1cccc(OC)c1-c1cc(C(=O)N[C@@H](CC(C)C)C(=O)O)nn1-c1cccc2ccccc12 [Compound 5] |  |  | agonist activity when screened [1]: no agonist activity |
| CC(C)CC(NC(=O)OCC1c2ccccc2-c2ccccc21)C(=O)O (stereo not shown) [Compound 6] |  | partial agonist activity |  |
| CC(C)C[C@H](NC(=O)Cn1ccc2cc(NS(=O)(=O)c3cccc4cccnc34)ccc21)C(=O)O [Compound 7] |  | partial agonist activity |  |
| COc1cccc(OC)c1-c1cc(C(=O)N[C@@H](CC(C)C)C(=O)O)nn1-c1ccnc2cc(Cl)ccc12 [Compound 3a] | demonstrated by blocking with the NTR1 antagonist (1a) |  | Emax ([1]; ± SEM, relative to neurotensin): 51 %NT |
